Experiments:
[1] = biological target: T1, wt human TYK2, catalytic site (Homo sapiens, UniProt P29597); test: HTRF KinEASE assay, TYK2; format: biochemical; conditions: 1 μM ATP; read-out: IC50, inhibitory activity toward TYK2
T1 construct: 2 nM wt human TYK2, catalytic site (SignalChem/CAN); purchased SignalChem/CAN
T1 sequence (P29597 897-1176 limits assumed): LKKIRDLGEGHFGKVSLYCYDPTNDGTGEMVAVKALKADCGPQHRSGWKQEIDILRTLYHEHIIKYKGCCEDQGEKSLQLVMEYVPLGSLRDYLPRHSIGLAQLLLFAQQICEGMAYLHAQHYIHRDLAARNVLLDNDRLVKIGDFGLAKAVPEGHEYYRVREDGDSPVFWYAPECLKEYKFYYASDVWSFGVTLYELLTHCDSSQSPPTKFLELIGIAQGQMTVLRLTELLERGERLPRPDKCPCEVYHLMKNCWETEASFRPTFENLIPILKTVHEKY
Summary of the method: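 2 nM wt human TYK2 catalytic domain with 1 μM biotinylated TK substrate and 1 μM ATP in 1× kinase buffer was incubated ≥30 min at room temperature. Antibody and streptavidin-XL665 were added, and HTRF emission ratios were read after 60 min.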

[2] = biological target: T2, wt human NUAK1, full length (Homo sapiens, UniProt O60285); test: TR-FRET LanthaScreen Eu Kinase Binding Assay, NUAK1; conditions: 5 nM Kinase Tracer 236; read-out: IC50, inhibitory activity toward NUAK1
T2 construct: 8 nM wt human NUAK1, full length (ThermoFisher/USA); purchased ThermoFisher/USA
T2 sequence (O60285 1-661): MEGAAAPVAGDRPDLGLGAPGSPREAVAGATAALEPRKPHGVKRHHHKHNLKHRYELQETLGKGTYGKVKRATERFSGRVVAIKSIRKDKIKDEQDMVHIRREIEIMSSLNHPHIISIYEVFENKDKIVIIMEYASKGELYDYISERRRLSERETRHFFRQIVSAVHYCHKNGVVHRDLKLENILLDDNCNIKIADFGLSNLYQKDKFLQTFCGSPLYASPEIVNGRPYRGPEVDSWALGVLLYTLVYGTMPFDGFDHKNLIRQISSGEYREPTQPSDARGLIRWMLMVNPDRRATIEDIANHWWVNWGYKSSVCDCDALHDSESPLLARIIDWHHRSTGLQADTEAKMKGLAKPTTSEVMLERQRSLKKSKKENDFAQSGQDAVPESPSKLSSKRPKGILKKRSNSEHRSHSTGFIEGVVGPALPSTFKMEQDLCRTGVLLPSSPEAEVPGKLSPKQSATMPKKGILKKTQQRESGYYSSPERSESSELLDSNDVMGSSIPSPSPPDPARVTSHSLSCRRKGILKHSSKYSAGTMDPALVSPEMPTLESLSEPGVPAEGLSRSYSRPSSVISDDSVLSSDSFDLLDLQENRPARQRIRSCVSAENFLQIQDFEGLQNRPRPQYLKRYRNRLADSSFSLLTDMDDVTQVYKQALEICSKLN
Summary of the method: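 TR-FRET tracer-displacement binding with 8 nM full-length wild-type human NUAK1, 2 nM Eu-anti-His antibody and 5 nM Kinase Tracer 236 in 1× Kinase Buffer A (final). Compound, kinase/antibody and tracer incubated 1 h at room temperature; emission ratios analysed per kit protocol.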

| IC50 [1] | IC50 [2] | Structure (SMILES) |
| --- | --- | --- |
| < 0.01 µM | 0.01 to 0.1 µM | Fc1cc2c(cc1-c1ccnnc1)N=C(c1c(F)cccc1Cl)Nc1c[nH]nc1-2 [Compound 230, 5-(2-chloro-6-fluorophenyl)-9-fluoro-8-(pyridazin-4-yl)-2,4-dihydrobenzo[d]pyrazolo[3,4-f][1,3]diazepine] |
| 0.01 to 0.1 µM | 0.01 to 0.1 µM | Fc1ccccc1-c1ccc2c(c1)N=C(c1c(F)cccc1F)Nc1c[nH]nc1-2 [Compound 233, 5-(2,6-difluorophenyl)-8-(2-fluorophenyl)-2,4-dihydrobenzo[d]pyrazolo[3,4-f][1,3]diazepine] |
| 0.01 to 0.1 µM | < 0.01 µM | Fc1ccccc1-c1ccc2c(c1)N=C(c1c(F)cccc1Cl)Nc1c[nH]nc1-2 [Compound 234, 5-(2-chloro-6-fluorophenyl)-8-(2-fluorophenyl)-2,4-dihydrobenzo[d]pyrazolo[3,4-f][1,3]diazepine] |
| 0.01 to 0.1 µM | 0.01 to 0.1 µM | CC(C)Oc1cc2c(cc1F)-c1n[nH]cc1N=C(c1c(F)cccc1Cl)N2 [Compound 235, 5-(2-chloro-6-fluorophenyl)-9-fluoro-8-isopropoxy-2,6-dihydrobenzo[d]pyrazolo[3,4-f][1,3]diazepine] |
| < 0.01 µM | 0.1 to 1 µM | Fc1ccccc1-c1ccc2c(c1)N=C(c1c(Cl)cccc1Cl)Nc1c[nH]nc1-2 [Compound 236, 5-(2,6-dichlorophenyl)-8-(2-fluorophenyl)-2,4-dihydrobenzo[d]pyrazolo[3,4-f][1,3]diazepine] |
| 0.01 to 0.1 µM | < 0.01 µM | Fc1ccc(-c2ccc3c(c2)N=C(c2c(F)cccc2F)Nc2c[nH]nc2-3)cc1 [Compound 237, 5-(2,6-difluorophenyl)-8-(4-fluorophenyl)-2,4-dihydrobenzo[d]pyrazolo[3,4-f][1,3]diazepine] |
| 0.01 to 0.1 µM | 0.01 to 0.1 µM | Fc1ccc(-c2ccc3c(c2)N=C(c2c(F)cccc2Cl)Nc2c[nH]nc2-3)cc1 [Compound 238, 5-(2-chloro-6-fluorophenyl)-8-(4-fluorophenyl)-2,4-dihydrobenzo[d]pyrazolo[3,4-f][1,3]diazepine] |
| 0.01 to 0.1 µM | 0.01 to 0.1 µM | Fc1cccc(-c2ccc3c(c2)N=C(c2c(F)cccc2F)Nc2c[nH]nc2-3)c1 [Compound 240, 5-(2,6-difluorophenyl)-8-(3-fluorophenyl)-2,4-dihydrobenzo[d]pyrazolo[3,4-f][1,3]diazepine] |
| < 0.01 µM | 0.01 to 0.1 µM | Fc1cccc(-c2ccc3c(c2)N=C(c2c(F)cccc2Cl)Nc2c[nH]nc2-3)c1 [Compound 241, 5-(2-chloro-6-fluorophenyl)-8-(3-fluorophenyl)-2,4-dihydrobenzo[d]pyrazolo[3,4-f][1,3]diazepine] |
| < 0.01 µM | 0.01 to 0.1 µM | Fc1ccc(-c2ccc3c(c2)N=C(c2c(Cl)cccc2Cl)Nc2c[nH]nc2-3)cc1 [Compound 242, 5-(2,6-dichlorophenyl)-8-(4-fluorophenyl)-2,4-dihydrobenzo[d]pyrazolo[3,4-f][1,3]diazepine] |
| 0.01 to 0.1 µM | 0.1 to 1 µM | Fc1cccc(-c2ccc3c(c2)N=C(c2c(Cl)cccc2Cl)Nc2c[nH]nc2-3)c1 [Compound 243, 5-(2,6-dichlorophenyl)-8-(3-fluorophenyl)-2,4-dihydrobenzo[d]pyrazolo[3,4-f][1,3]diazepine] |
| 0.01 to 0.1 µM | 0.1 to 1 µM | Fc1cc2c(cc1OC1CCCC1)N=C(c1c(F)cccc1Cl)Nc1c[nH]nc1-2 [Compound 245, 5-(2-chloro-6-fluorophenyl)-8-(cyclopentyloxy)-9-fluoro-2,4-dihydrobenzo[d]pyrazolo[3,4-f][1,3]diazepine] |

| Structure (SMILES) | IC50 [1] | IC50 [2] |
| --- | --- | --- |
| Fc1cc2c(cc1-c1ccccc1)N=C(c1c(F)cccc1F)Nc1c[nH]nc1-2 [Compound 231, 5-(2,6-difluorophenyl)-9-fluoro-8-phenyl-2,4-dihydrobenzo[d]pyrazolo[3,4-f][1,3]diazepine] | 0.01 to 0.1 µM | 0.01 to 0.1 µM |
| CCC(C)Oc1cc2c(cc1F)-c1n[nH]cc1N=C(c1c(F)cccc1Cl)N2 (stereo not drawn) [Compound 239, 8-(sec-butoxy)-5-(2-chloro-6-fluorophenyl)-9-fluoro-2,6-dihydrobenzo[d]pyrazolo[3,4-f][1,3]diazepine] | 0.01 to 0.1 µM | 0.1 to 1 µM |
| CC[C@H](C)Oc1cc2c(cc1F)-c1n[nH]cc1N=C(c1c(F)cccc1Cl)N2 [Compound 247, (S)-8-(sec-butoxy)-5-(2-chloro-6-fluorophenyl)-9-fluoro-2,6-dihydrobenzo[d]pyrazolo[3,4-f][1,3]diazepine] | 0.01 to 0.1 µM | 0.01 to 0.1 µM |
